Tests used:
Format in all cases: in vivo
[1] = system: cotton aphids (Aphis gossypii); assay: Test method 1: spray on cucumber seedling infested with cotton aphids; settings: 500 ppm; sprayed 10 mL/seedling on cucumber one day after release of about 30 aphids (all stages); after 5 days; 25° C.
Procedure: Next, an efficacy of the Type 1 crystal of Compound (1) on controlling harmful arthropods is shown by Test examples. The following tests were conducted at 25° C. Test compound is made to a formulation according to a similar method to that described in the Formulation example 1, and thereto is added water containing 0.03 v/v % of Shindain (registered trademark) to prepare a dilution containing a prescribed concentration of the test compound. Cucumber (Cucumis sativus) seedling (on the developmental stage of the second true leaf) is planted in a cup, and approximately 30 cotton aphids (Aphis gossypii) (all stages of life) are released onto the seedling. After one day, the dilutions are sprayed onto the seedling at a ratio of 10 mL/seedling. After 5 days, the number of the surviving insects is examined and the controlling value is calculated by the following equation. […]

[2] = system: common cutworms (Spodoptera litura); assay: Test method 2: sprayed cabbage leaves fed to common cutworms; settings: 120 h, cabbage sprayed 20 mL/seedling, second instar larvae, after 5 days, 25° C., read-out: mortality of insects
Procedure: (§1) Next, an efficacy of the Type 1 crystal of Compound (1) on controlling harmful arthropods is shown by Test examples. The following tests were conducted at 25° C.
(§2) Test compound is made to a formulation according to a similar method to that described in the Formulation example 1, and thereto is added water containing 0.03 v/v % of Shindain (registered trademark) to prepare a dilution containing a prescribed concentration of the test compound.
(§3) Cabbage (Brassicae oleracea) seedling (on the developmental stage of the second to third true leaf) is planted in a cup, and the dilutions are sprayed onto the seedling at a ratio of 20 mL/seedling. Thereafter, the stem and leaf thereof are cut out and then are placed into a cup that is lined with a filter paper. Five (5) common cutworms (Spodoptera litura) at the second instar larval stage are released into the cup. After 5 days, the number of the surviving insects is counted, and the mortality of insects is calculated by the following equation.

[3] = system: diamondback moths (Plutella xylostella); assay: Test method 3: sprayed cabbage leaves fed to diamondback moths; settings: 120 h, cabbage sprayed 20 mL/seedling, second instar larvae, after 5 days, 25° C., read-out: mortality of insects
Procedure: as §1, §2
as §3, with “diamondback moths (Plutella xylostella)” for “common cutworms (Spodoptera litura)”

[4] = system: common house mosquitos (Culex pipiens pallens); assay: Test method 4: common house mosquito larvae released into dilution; settings: 24 h, last instar larvae released into dilution, after 1 day, 25° C., read-out: mortality of insects
Procedure: as §1
Test compound is made to a formulation according to a similar method to that described in the Formulation example 1, and thereto is added water to prepare a dilution containing a prescribed concentration of the test compound.
Into the dilution, 30 common house mosquitos (Culex pipiens pallens) at the last instar larval stage are released, and after 1 day, the state of the common house mosquito larvae is examined, and the mortality of insects is calculated by the following equation.

[5] = system: brown planthoppers (Nilaparvata lugens); assay: Test method 5: sprayed rice seedling with brown planthoppers; settings: 144 h, rice sprayed 10 mL/seedling, third instar larvae, after 6 days, 25° C., read-out: mortality of insects
Procedure: as §1, §2
Rice (Oryza sativa) seedling (on the developmental stage of the second leaf) is planted in a cup, and the dilutions are sprayed onto the seedling at a ratio of 10 mL/seedling. Thereafter, twenty (20) brown planthoppers (Nilaparvata lugens) at the third instar larval stage are released into the cup. After 6 days, the number of the surviving insects is counted, and the mortality of insects is calculated by the following equation.

[6] = system: cotton aphids (Aphis gossypii); assay: Test method 6: sprayed cucumber seedling, artificial rainfall, then cotton aphids released; settings: 0.5 ppm; cucumber sprayed 10 mL/seedling, dried, artificial rain 10 mm/hr for 1 hour; female adults released after one day; after 5 days; 25° C.
Procedure: Next, an efficacy of the Type 1 crystal of Compound (1) on controlling harmful arthropods is shown by Test examples. The following tests were conducted at 25° C. Test compound is made to a formulation according to a similar method to that described in the Formulation example 1, and thereto is added water containing 0.02 v/v % of Shindain (registered trademark) to prepare a dilution containing a prescribed concentration of the test compound. Only the second true leaves of Cucumber (Cucumis sativus) seedling (on the developmental stage of the third true leaf) are retained, and the other leaves are cut off, and the dilutions are sprayed onto the seedling at a ratio of 10 mL/seedling. After the dilution, which is treated, is dried, rain is given to the cucumber seedling with an artificial rainfall device at 10 mm/hr for 1 hour. After one day, 10 cotton aphids (Aphis gossypii) female adults are released onto the seedling. After 5 days, the number of the surviving insects is examined and the controlling value is calculated by the following equation. […]

[7] = system: Argentine ant (Linepithema humile); assay: Test method 7: sugar-water filter paper test on Argentine ant workers; settings: 0.2 ppm, 0.7 ml dilution in sugar water on filter paper, after 6 days, 25° C.
Procedure: as §1
(§4) Test compound is made to a formulation according to a similar method to that described in the Formulation example 1, and thereto is added 1.8 g of sucrose, followed by adding 3% sugar water to prepare a dilution containing a prescribed concentration of the test compound.
(§5) A filter paper having a diameter of 5.5 cm is spread on the bottom of the cup, and then 0.7 ml of the dilutions are added dropwise to the filter paper, and ten (10) Argentine ant (Linepithema humile) workers are released into the cup, and the cup is covered with the lid. After 6 days, the number of the dead and distressed individuals of Argentine ant workers are counted, and the ratio of distressed and dead insects (%) is calculated by the following equation.
(§6) Here the dead individual is one whose behavior has completely stopped, and a distressed individual is one that cannot stand up when placed on its back and also cannot walk.

[8] = system: pharaoh ant (Monomorium pharaonis); assay: Test method 8: sugar-water filter paper test on pharaoh ant workers; settings: 0.05 ppm, 0.7 ml dilution in sugar water on filter paper, after 2 days, 25° C.
Procedure: as §1, §4
as §5, with “pharaoh” for “Argentine”, “(Monomorium pharaonis)” for “(Linepithema humile)”, “2” for “6”
as §6

[9] = system: German cockroach (Blattella germanica); assay: Test method 9: sugar-water filter paper test on German cockroach male adults; settings: 0.2 ppm, 0.7 ml dilution in sugar water on filter paper, after 5 days, 25° C.
Procedure: as §1, §4
as §5, with “five (5) German cockroach (Blattella germanica) male adults” for “and ten (10) Argentine ant (Linepithema humile) workers”, “5” for “6”, “German cockroach male adults” for “Argentine ant workers”
as §6

[10] = system: common house mosquito (Culex pipiens pallens); assay: Test method 10: sugar-water filter paper test on common house mosquito female adults; settings: 0.8 ppm, 0.7 ml dilution in sugar water on filter paper, after 2 days, 25° C.
Procedure: as §1, §4
as §5, with “five (5) common house mosquito (Culex pipiens pallens) female adults” for “and ten (10) Argentine ant (Linepithema humile) workers”, “2” for “6”, “[…] female adults” for “Argentine ant workers”
Here the dead individual is one whose behavior has completely stopped, and a distressed individual is one that cannot fly and also cannot walk.

SMILES | controlling value [1] [%] | mortality at 500 ppm [2] [%] | mortality at 500 ppm [3] [%] | mortality at 3.5 ppm [4] [%] | mortality at 500 ppm [5] [%] | controlling value [6] [%] | ratio of distressed and dead insects [7] [%] | ratio of distressed and dead insects [8] [%] | ratio of distressed and dead insects [9] [%] | ratio of distressed and dead insects [10] [%]
CCS(=O)(=O)c1cc(C2CC2)cnc1-c1nc2cc([S+]([O-])C(F)(F)F)ccc2o1 (stereo not drawn) [Type 1 crystal of Compound (1), 2-(5-cyclopropyl-3-(ethylsulfonyl)pyridin-2-yl)-5-((trifluoromethyl)sulfinyl)benzo[d]oxazole] | ≥ 90 | ≥ 80 | ≥ 80 | ≥ 90 | ≥ 90 | 55.7 | 95 | 100 | 100 | 100
CCS(=O)(=O)c1cc(C2CC2)cnc1-c1nc2cc([S+]([O-])C(F)(F)F)ccc2o1 (stereo not drawn) [amorphous of Compound (1), 2-(5-cyclopropyl-3-(ethylsulfonyl)pyridin-2-yl)-5-((trifluoromethyl)sulfinyl)benzo[d]oxazole] | – | – | – | – | – | 32.4 | 30 | 15 | 0 | 20

— patent US20260144259A1, “CRYSTAL OF 2-(5-CYCLOPROPYL-3-(ETHYLSULFONYL)PYRIDIN-2-YL)-5-((TRIFLUOROMETHYL)SULFINYL)BENZO[D]OXAZOLE” (SUMITOMO CHEMICAL COMPANY, LIMITED, priority 2022, published 2026)
